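How tested: cells in 96-well plates exposed to compound for 48 hours at five concentrations. GI50 = concentration required for 50% inhibition of growth. TGI: total growth inhibition.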
What was measured:
Experiment in all cases: NCI anticancer screen, dose series, 48 h
COLO 205 colon = system: COLO 205 colon
SK-OV-3 ovarian = system: SK-OV-3 ovarian
NCI-H226 lung = system: NCI-H226 lung
M14 melanoma = system: M14 melanoma
ACHN renal = system: ACHN renal
MOLT-4 leukemia = system: MOLT-4 leukemia
MDA-MB-231 breast = system: MDA-MB-231 breast
UACC-62 melanoma = system: UACC-62 melanoma
SK-MEL-5 melanoma = system: SK-MEL-5 melanoma
HOP-92 NSCLC = system: HOP-92 NSCLC
OVCAR-8 ovarian = system: OVCAR-8 ovarian
786-0 renal = system: 786-0 renal
OVCAR-3 ovarian = system: OVCAR-3 ovarian
CAKI-1 renal = system: CAKI-1 renal
A498 renal = system: A498 renal
SW-620 colon = system: SW-620 colon
A549 NSCLC = system: A549 NSCLC
SN12C renal = system: SN12C renal
SK-MEL-2 melanoma = system: SK-MEL-2 melanoma
HCT-116 colon = system: HCT-116 colon
IGROV1 ovarian = system: IGROV1 ovarian
HOP-62 NSCLC = system: HOP-62 NSCLC
LOX IMVI melanoma = system: LOX IMVI melanoma
HCT-15 colon = system: HCT-15 colon
RPMI-8226 leukemia = system: RPMI-8226 leukemia
EKVX NSCLC = system: EKVX NSCLC
HS 578T breast = system: HS 578T breast
NCI/ADR-RES ovarian = system: NCI/ADR-RES ovarian
NCI-H522 lung = system: NCI-H522 lung

O=C(Nc1ccc(-n2ccc3c(NC(=O)c4ccccc4)ncnc32)cc1)c1ccc(Cl)c(C(F)(F)F)c1
GI50 (COLO 205 colon): 2.46 µM | TGI (COLO 205 colon): 17.2 µM | GI50 (SK-OV-3 ovarian): 11.1 µM | TGI (SK-OV-3 ovarian): 25.5 µM | GI50 (NCI-H226 lung): 6.58 µM | TGI (NCI-H226 lung): 25.1 µM | GI50 (M14 melanoma): 1.37 µM | TGI (M14 melanoma): 9.47 µM | GI50 (ACHN renal): 1.28 µM | TGI (ACHN renal): 15.2 µM | GI50 (MOLT-4 leukemia): 1.38 µM | TGI (MOLT-4 leukemia): > 32 µM | GI50 (MDA-MB-231 breast): 1.93 µM | TGI (MDA-MB-231 breast): 11.5 µM | GI50 (UACC-62 melanoma): 0.947 µM | TGI (UACC-62 melanoma): 12.2 µM | GI50 (SK-MEL-5 melanoma): 0.603 µM | TGI (SK-MEL-5 melanoma): 15.1 µM | GI50 (HOP-92 NSCLC): 8.16 µM | TGI (HOP-92 NSCLC): 25.7 µM | GI50 (OVCAR-8 ovarian): 2.1 µM | GI50 (786-0 renal): 5.02 µM | TGI (786-0 renal): 23.6 µM | GI50 (OVCAR-3 ovarian): 3.44 µM | TGI (OVCAR-3 ovarian): 9.37 µM | GI50 (CAKI-1 renal): 0.83 µM | TGI (CAKI-1 renal): 11.1 µM | GI50 (A498 renal): 13 µM | TGI (A498 renal): 29.4 µM | GI50 (SW-620 colon): 1.29 µM | TGI (SW-620 colon): 6.21 µM | GI50 (A549 NSCLC): 1.84 µM | TGI (A549 NSCLC): 12.6 µM | GI50 (SN12C renal): 3.8 µM | TGI (SN12C renal): 16.5 µM | GI50 (SK-MEL-2 melanoma): 2.36 µM | TGI (SK-MEL-2 melanoma): 8.68 µM | GI50 (HCT-116 colon): 0.536 µM | TGI (HCT-116 colon): 7.26 µM | GI50 (IGROV1 ovarian): 5.81 µM | TGI (IGROV1 ovarian): 31 µM | GI50 (HOP-62 NSCLC): 3.45 µM | TGI (HOP-62 NSCLC): 11.2 µM | GI50 (LOX IMVI melanoma): 0.321 µM | TGI (LOX IMVI melanoma): 3.71 µM | GI50 (HCT-15 colon): 0.116 µM | TGI (HCT-15 colon): 6.77 µM | GI50 (RPMI-8226 leukemia): 1.63 µM | TGI (RPMI-8226 leukemia): 29 µM | GI50 (EKVX NSCLC): 5.66 µM | TGI (EKVX NSCLC): 25.4 µM | GI50 (HS 578T breast): 4.96 µM | TGI (HS 578T breast): 15.6 µM | GI50 (NCI/ADR-RES ovarian): 3.1 µM | TGI (NCI/ADR-RES ovarian): 23.5 µM | GI50 (NCI-H522 lung): 3.02 µM | TGI (NCI-H522 lung): 13.3 µM

— PubChem BioAssay (NCI)
